Reference: patent publication US20140155376A1, “PYRROLOPYRAZINE KINASE INHIBITORS” (Hoffmann-La Roche Inc., priority 2010, published 2014)

Target: T1, JAK3 (recombinant human kinase domain; h-jak3(810-1124)) (Homo sapiens, UniProt P52333)
T1 construct: h-jak3(810- 1124)-sf9-c; made in house; host or cells: Sf9 insect cells
Assay: Determination of IC50 of Janus Kinase (JAK) inhibition: JAK3, radioactive end-point assay with 33P-ATP
Type: biochemical
Settings: JAK3 kinase domain; ATP 1.5 uM, peptide 50 uM, 20 minutes, room temperature, 10% DMSO; read-out: Ic50 h-jak3(810-1124)-sf9-c:no additive

T1 sequence (P52333 810-1124): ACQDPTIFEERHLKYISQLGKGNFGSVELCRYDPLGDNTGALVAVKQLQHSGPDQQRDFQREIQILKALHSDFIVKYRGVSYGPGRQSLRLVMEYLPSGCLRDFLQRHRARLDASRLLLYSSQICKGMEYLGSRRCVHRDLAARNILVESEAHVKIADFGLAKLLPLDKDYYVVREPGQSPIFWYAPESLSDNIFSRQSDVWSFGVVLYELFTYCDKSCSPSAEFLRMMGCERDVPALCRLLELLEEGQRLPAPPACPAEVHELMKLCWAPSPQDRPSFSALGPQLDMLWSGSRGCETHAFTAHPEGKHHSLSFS

Compound `CC(C)NC(=O)c1c[nH]c2ncc(Oc3ccc4c(c3)[C@@H](N)CC4)nc12` [Example I-289, 2-((S)-3-Amino-indan-5-yloxy)-5H-pyrrolo[2,3-b]pyrazine-7-carboxylic acid isopropylamide] has an IC50 of 0.533 µM.

`Cc1ccc([C@@H](C)NC(=O)c2ccc(-c3cnc4[nH]cc(C(=O)N[C@@H](C)C(C)(C)C)c4n3)s2)cc1` [Example I-202, 2-[5-((R)-1-p-Tolyl-ethylcarbamoyl)-thiophen-2-yl]-5H-pyrrolo[2,3-b]pyrazine-7-carboxylic acid ((S)-1,2,2-trimethyl-propyl)-amide] showed an IC50 of 0.00052 µM.

Compound `CC(C)(O)C(C)(C)NC(=O)c1c[nH]c2ncc(C3CC3)nc12` [Example I-79, 2-Cyclopropyl-5H-pyrrolo[2,3-b]pyrazine-7-carboxylic acid (2-hydroxy-1,1,2-trimethyl-propyl)-amide] has an IC50 of 0.0407 µM.

`CCNC(=O)c1c[nH]c2ncc(Oc3ccccc3)nc12` [Example I-131, 2-Phenoxy-5H-pyrrolo[2,3-b]pyrazine-7-carboxylic acid ethylamide] showed an IC50 of 1.03 µM.

`CCNC(=O)c1c[nH]c2ncc(Oc3ccccc3C)nc12` [Example I-257, 2-o-Tolyloxy-5H-pyrrolo[2,3-b]pyrazine-7-carboxylic acid ethylamide] showed an IC50 of 2.74 µM.

In the case of `C[C@H](NC(=O)c1c[nH]c2ncc(-c3ccc(C(=O)NCc4cccc(C#N)c4)s3)nc12)C(C)(C)C` [Example I-227, 2-[5-(3-Cyano-benzylcarbamoyl)-thiophen-2-yl]-5H-pyrrolo[2,3-b]pyrazine-7-carboxylic acid ((S)-1,2,2-trimethyl-propyl)-amide], the IC50 is reported as 0.0106 µM.

Work on `CC(NC(=O)c1c[nH]c2ncc(Oc3ccc(F)cc3)nc12)C1CC1` (stereo not shown) [Example I-113, 2-(4-Fluoro-phenoxy)-5H-pyrrolo[2,3-b]pyrazine-7-carboxylic acid (1-cyclopropyl-ethyl)-amide] yielded an IC50 of 0.0357 µM.

In the case of `C[C@H](NC(=O)c1c[nH]c2ncc(C3CCCC3)nc12)C(C)(C)O` [Example I-6, 2-Cyclopentyl-5H-pyrrolo[2,3-b]pyrazine-7-carboxylic acid ((S)-2-hydroxy-1,2-dimethyl-propyl)-amide], the IC50 is reported as 0.126 µM.

With `C[C@H](NC(=O)c1c[nH]c2ncc(-c3ccc(C(=O)NCc4ccccc4)s3)nc12)C(C)(C)C` [Example I-226, 2-(5-Benzylcarbamoyl-thiophen-2-yl)-5H-pyrrolo[2,3-b]pyrazine-7-carboxylic acid ((S)-1,2,2-trimethyl-propyl)-amide] the IC50 was 0.0005 µM.

For `CNC(=O)CNc1cnc2[nH]cc(C(=O)NCC(C)(C)CO)c2n1` [Example I-16], the IC50 was 0.459 µM.

For `CC(C)(O)C(NC(=O)c1c[nH]c2ncc(C3CC3)nc12)C(F)(F)F` (stereo not shown) [Example I-93, 2-Cyclopropyl-5H-pyrrolo[2,3-b]pyrazine-7-carboxylic acid (2-hydroxy-2-methyl-1-trifluoromethyl-propyl)-amide], the IC50 was 0.0578 µM.

`C[C@@H]1C[C@H]1c1cnc2[nH]cc(C(=O)NCC(C)(C)CO)c2n1` [Example I-43, 2-((1R,2R)-2-Methyl-cyclopropyl)-5H-pyrrolo[2,3-b]pyrazine-7-carboxylic acid (3-hydroxy-2,2-dimethyl-propyl)-amide] gave an IC50 of 0.121 µM.

With `CC(C)NC(=O)c1c[nH]c2ncc(Oc3cccc(OC(F)(F)F)c3)nc12` [Example I-230, 2-(3-Trifluoromethoxy-phenoxy)-5H-pyrrolo[2,3-b]pyrazine-7-carboxylic acid isopropylamide] the IC50 was 2.61 µM.

`CC(C)(CCO)NC(=O)c1c[nH]c2ncc(C3CC3)nc12` [Example I-42, 2-Cyclopropyl-5H-pyrrolo[2,3-b]pyrazine-7-carboxylic acid (3-hydroxy-1,1-dimethyl-propyl)-amide] gave an IC50 of 0.131 µM.

`C#CCNC(=O)c1ccc(-c2cnc3[nH]cc(C(=O)N[C@@H](C)C(C)(C)C)c3n2)s1` [Example I-198, 2-(5-Prop-2-ynylcarbamoyl-thiophen-2-yl)-5H-pyrrolo[2,3-b]pyrazine-7-carboxylic acid ((S)-1,2,2-trimethyl-propyl)-amide] showed an IC50 of 0.00054 µM.

Work on `C[C@H](NC(=O)c1c[nH]c2ncc(-c3ccc(C(=O)N[C@H](C)C4CC4)s3)nc12)C(C)(C)C` [Example I-162, 2-[5-((R)-1-Cyclopropyl-ethylcarbamoyl)-thiophen-2-yl]-5H-pyrrolo[2,3-b]pyrazine-7-carboxylic acid ((S)-1,2,2-trimethyl-propyl)-amide] yielded an IC50 of 0.00032 µM.

With `CC(=O)NC1CCN(C(=O)c2ccc(-c3cnc4[nH]cc(C(=O)N[C@@H](C)C(C)(C)C)c4n3)s2)CC1` [Example I-183, 2-[5-[4-Acetylamino-piperidine-1-carbonyl)-thiophen-2-yl]-5H-pyrrolo[2,3-b]pyrazine-7-carboxylic acid ((S)-1,2,2-trimethyl-propyl)-amide] the IC50 was 0.00032 µM.

For `C[C@@H](NC(=O)c1c[nH]c2ncc(-c3cccs3)nc12)C(C)(C)O` [Example I-103, 2-Thiophen-2-yl-5H-pyrrolo[2,3-b]pyrazine-7-carboxylic acid ((R)-2-hydroxy-1,2-dimethyl-propyl)-amide], the IC50 was 0.00725 µM.

Compound `C[C@@H](NC(=O)c1c[nH]c2ncc(C3CC3)nc12)C1(C#N)CCCC1` [Example I-100, 2-Cyclopropyl-5H-pyrrolo[2,3-b]pyrazine-7-carboxylic acid [(R)-1-(1-cyano-cyclopentyl)-ethyl]-amide] has an IC50 of 0.0385 µM.

`C[C@@H](NC(=O)c1c[nH]c2ncc(C3=CCOCC3)nc12)C(C)(C)O` [Example I-110, 2-(3,6-Dihydro-2H-pyran-4-yl)-5H-pyrrolo[2,3-b]pyrazine-7-carboxylic acid ((R)-2-hydroxy-1,2-dimethyl-propyl)-amide] was tested, and the IC50 was 0.0454 µM.

With `C[C@@H](NC(=O)c1c[nH]c2ncc(Oc3ccc(F)cc3F)nc12)C1CCCCC1` [Example I-124, 2-(2,4-Difluoro-phenoxy)-5H-pyrrolo[2,3-b]pyrazine-7-carboxylic acid ((R)-1-cyclohexyl-ethyl)-amide] the IC50 was 0.442 µM.

`CC(C)[C@@H](C)NC(=O)c1c[nH]c2ncc(Oc3ccc(F)cc3F)nc12` [Example I-127, 2-(2,4-Difluoro-phenoxy)-5H-pyrrolo[2,3-b]pyrazine-7-carboxylic acid ((R)-1,2-dimethyl-propyl)-amide] was tested, and the IC50 was 0.143 µM.

With `CCC(NC(=O)c1c[nH]c2ncc(C3CC3)nc12)C1CCCCC1` (stereo not shown) [Example I-75, 2-Cyclopropyl-5H-pyrrolo[2,3-b]pyrazine-7-carboxylic acid (1-cyclohexyl-propyl)-amide] the IC50 was 0.0687 µM.

In the case of `C[C@H](NC(=O)c1c[nH]c2ncc(-c3ccc(C(=O)NCc4ccc(F)cc4)s3)nc12)C(C)(C)C` [Example I-185, 2-[5-(4-Fluoro-benzylcarbamoyl)-thiophen-2-yl]-5H-pyrrolo[2,3-b]pyrazine-7-carboxylic acid ((S)-1,2,2-trimethyl-propyl)-amide], the IC50 is reported as 0.00032 µM.

Work on `CC(C)(CO)CNC(=O)c1c[nH]c2ncc(N3CCC(C)(C)C3)nc12` [Example I-14, 2-(3,3-Dimethyl-pyrrolidin-1-yl)-5H-pyrrolo[2,3-b]pyrazine-7-carboxylic acid (3-hydroxy-2,2-dimethyl-propyl)-amide] yielded an IC50 of 0.409 µM.
